Data from patent US6962706B1, “Synthetic peptides containing protective epitopes for the treatment and prevention of periodontitis associated with porphyromonas gingivalis” (The University of Melbourne, priority 1999, dated 2005).

Test system: serum IgG antibody (protective mouse sera, patient sera D20, D24, H10)
Assay: Epitope mapping ELISA of PIN-bound PrtR27 overlapping peptides with human and mouse antisera
Assay type: binding
Conditions: PIN-bound overlapping 13 mer peptides, antisera diluted 1:1000, O.D. 450 nm
Excerpt: FIG. 6: Serum IgG antibody responses assessed by ELISA to Porphyromonas gingivalis PrtR-27 overlapping peptides (SEQ ID NOs:13-24, 33, and 25-32, respectively, from origin). Twenty one PIN-bound peptides were probed with normal mouse sera (▪), protective mouse sera (□), normal human serum (▪), patient D24 sera (▪), patient H10 sera (▪) and patient D20 sera (▪). ELISAs were developed as per Example 1.
Twenty overlapping 13 mer peptides (overlay by 6 and offset by 7 residues) corresponding to the N-terminal 148 residues of the PrtR27 were synthesised by Chiron Technologies (Melbourne, Australia) using the multipin peptide synthesis system. The sequence of the N-terminal 148 residues of the PrtR27 adhesin is as follows: • […] (SEQ ID NO: 12). The overlapping peptides synthesised were: • […] (SEQ ID NO:13) • […] (SEQ ID NO:14) • […] (SEQ ID NO:15) • […] (SEQ ID NO:16) • […] (SEQ ID NO:17) • […] (SEQ ID NO:18) • […] (SEQ ID NO:19) • […] (SEQ ID NO:20) • […] (SEQ ID NO:21) • […] (SEQ ID NO:22) • […] (SEQ ID NO:23) • […] (SEQ ID NO:24) • […] (SEQ ID NO:25) • […] (SEQ ID NO:26) • […] (SEQ ID NO:27) • […] (SEQ ID NO:28) • […] (SEQ ID NO:29) • […] (SEQ ID NO:30) • […] (SEQ ID NO:31) • […] (SEQ ID NO:32).
Epitope mapping of the pin-bound peptides was carried out by ELISA as per Chiron Technologies instructions using the human and mouse proteinase antisera at a dilution of 1:1000 in 1% w/v non-fat skim milk powder in 0.1M phosphate buffered saline, pH 7.4, containing 0.1% v/v Tween 20. The bound antibody was detected by incubating the peptide-PINS with 0.4 mM 3,3′,5,5′-tetramethylbenzidine in 0.1M sodium acetate/citric acid buffer containing 0.004% v/v H2O2. Colour development was stopped by the addition of 2M H2SO4. Optical density (O.D.) was measured at 450 nm using a BioRad microplate reader model 450.

| Sequence | Antibody binding of PrtR27 regions in ELISA (FIG. 6) |
| --- | --- |
| LYSANFESLIPANADPVVTTQNIIVTG (listed as Porphyromonas gingivalis) [EP2] | bind antibody |
| FLLDADHNTFGSVIPATGPLFTGTASS (listed as Porphyromonas gingivalis) [EP1] | bind antibody |
| RYDDFTFEAGKKYTFTMRRAGMGDGTD (listed as Porphyromonas gingivalis) [EP5] | bind antibody |
| TNPEPASGKMWIAGDGGNQP (listed as Porphyromonas gingivalis) [EP4] | bind antibody |
